pIC50: −log10 of the molar value. Where only a bound is given, the exact number is not on record here.

For one data set, the target named is NR2B (Rattus norvegicus (Rat), UniProt Q00960). As to the kind of experiment: NR2B rat cortical neuron calcium influx assay. The format is cell-based. Conditions: rat cortical neurons, glutamate and glycine stimulated calcium influx. An excerpt:
Example 1: NR2B Rat Cortical Neuron Calcium Influx Assay Protocol
Embryonic day 18 timed pregnant Sprague Dawley rats were euthanized according to Institutional Animal Care and Use Committee (IACUC) protocol. After cutting medially through the skin and exposing the uterus and embryos, fetuses were removed and placed in cold Hibernate medium. Each embryo's brain was extracted and cerebral cortices were isolated by removing the midbrain and meninges. The dissected cortices were then dissociated into the neurons using papain dissociation system (Worthington Biochemical Corporation) according the manufacturer's protocol.
Dissociated neurons were counted and plated into 384-well poly-D-lysine coated plates (Corning® BioCoat™) at a density of 20,000 cells/well in 30 μL of Neurobasal/B27 complete medium. Neurons were cultured at 37° C. for 2 days. On the assay day, medium was removed and cells were incubated with 20 μL/well of calcium dye (Calcium 6 Assay Kit, Molecular Devices) suspended in HBSS with 1.8 mM Ca^2+ (Ca-HBSS) according to the manufacturer's instruction.
Compounds of interest from 10 mM stock were serially diluted into 3× of desired concentrations in 1.8 mM Ca-HBSS, and 10 μL were added to the wells. Compound and the neurons were incubated at 37° C. for 2 hours in the dark.
On FDSS7000EX (Hamamatsu Photonics), a fluorescence measuring instrument, 10 μL of 4× ligand solution containing glutamate and glycine made in 1.8 mM Ca^2+-HBSS were added to each well. The fluorescent signals were collected before and after the addition of ligands for a total of 2 minutes. The data were converted to a ratio of the peak fluorescence to the fluorescence at the beginning of the measurement.
Each data point was measured in duplicates. Dose response curves were used to identify IC50 and maximal inhibition values. IC50 represents the concentration in μM of compound at which there is a half-maximal compound effect. Maximal inhibition of a compound is expressed as a percent of the highest inhibition of activity over a no compound control.

The next data set concerns the target P-glycoprotein (P-gp) (Homo sapiens (Human), UniProt P08183). As to the kind of experiment: MDCK-MDR1 permeability / efflux assay. The format is in vitro ADME. As to conditions: for efflux ratio at 120 min, 10 μM: dog, MDCK-MDR1, pH 7.4, efflux ratio, read-out: MDCK-MDR1 ER. As for the experimental part:
Example 4. Experimental Measurement of Efflux with MDCK-MDR1 Protocol
Cell Culture. MDCK-MDR1 cells were cultured at 37° C. under a 5% CO2 atmosphere, at 95% relative humidity in DMEM containing 10% FBS, penicillin-streptomycin (100 μg/mL), and 2 mM Ala-Gln. Cells were passaged every 3-4 days. For assay purposes, cells were seeded at a density of approximately 265,000 cells/cm^2 of a 96-well Transwell plate (Corning Life Sciences, Acton, MA) and cultured in the same media noted above for a period of 4 days.
Assay. The determination of the apparent permeability (Papp) was performed in both the A→B (apical to basal) and B→A (basal to apical) directions where each compound was assayed in triplicate. The zwitterion bestatin, a poorly permeably compound, was used as marker of monolayer integrity. To initiate the assay, media was aspirated, and the cells and basal chambers were washed three times with Hank's Balanced Salt Solution (HBSS) containing 10 mM HEPES (pH 7.4). Compound test solutions were prepared in triplicate in HBSS containing 10 mM HEPES (pH 7.4) and 0.02% bovine serum albumin (BSA) to a final concentration of 10 μM and centrifuged for 2 min at 4000×g, then applied to the donor compartment at time zero. Additionally, at time zero, a 37° C. solution without test articles (HBSS+10 mM HEPES (pH 7.4) plus 0.02% BSA) was added to the receiver chamber of the Transwell plate. A time zero sample of the donor solution was also sampled for further analysis. The assay was conducted for a period of 120 min at 37° C. without shaking. At the time of assay termination, samples were taken from each donor compartment, and each acceptor compartment of the Transwell plate. To each of the 0 and 120 min samples was added an internal standard solution containing glyburide in water:acetonitrile, 50:50 (v:v). Concentration curves were prepared using a Labcyte Echo in the same matrix noted above. Samples and concentration curve samples were centrifuged for 10 min at 4000×g and subsequently analyzed by mass spectroscopy.
Mass Spectroscopy. Assay samples were loaded onto a RapidFire C4 cartridge by means of a RapidFire autosampler (Agilent, Santa Clara, CA). […] Mass spectroscopy was performed using an AB Sciex AP15500 (Sciex, Frammingham, MA) equipped with a turbo ion spray source. The analyte concentration was calculated from the chromatographic peak area ratio of analyte to internal standard (glibenclamide, m/z 494→169), using Multiquant software V3.0 (Sciex, Framingham, MA).
Calculations. Papp values were determined as
Percent recovery values were determined as:
where VA is the volume of the acceptor (mL), S is the surface area of the membrane, D0 is the donor solution concentration at t=0, D120 is the donor solution concentration at t=120, A120 is the acceptor solution concentration at t=120, and t=time (seconds).
The suitability of a compound for oral dosing and/or for use as a CNS therapeutic is usually conducted by MDCK-MDR1 permeability assay to investigate its drug efflux potential mediated by P-glycoprotein (P-gp). MDCK-MDR1 permeability has been used as a predictor of blood brain barrier permeability in terms of efflux ratio (ER).

Chain of NR2B (Q00960 27-1482, other chains not shown): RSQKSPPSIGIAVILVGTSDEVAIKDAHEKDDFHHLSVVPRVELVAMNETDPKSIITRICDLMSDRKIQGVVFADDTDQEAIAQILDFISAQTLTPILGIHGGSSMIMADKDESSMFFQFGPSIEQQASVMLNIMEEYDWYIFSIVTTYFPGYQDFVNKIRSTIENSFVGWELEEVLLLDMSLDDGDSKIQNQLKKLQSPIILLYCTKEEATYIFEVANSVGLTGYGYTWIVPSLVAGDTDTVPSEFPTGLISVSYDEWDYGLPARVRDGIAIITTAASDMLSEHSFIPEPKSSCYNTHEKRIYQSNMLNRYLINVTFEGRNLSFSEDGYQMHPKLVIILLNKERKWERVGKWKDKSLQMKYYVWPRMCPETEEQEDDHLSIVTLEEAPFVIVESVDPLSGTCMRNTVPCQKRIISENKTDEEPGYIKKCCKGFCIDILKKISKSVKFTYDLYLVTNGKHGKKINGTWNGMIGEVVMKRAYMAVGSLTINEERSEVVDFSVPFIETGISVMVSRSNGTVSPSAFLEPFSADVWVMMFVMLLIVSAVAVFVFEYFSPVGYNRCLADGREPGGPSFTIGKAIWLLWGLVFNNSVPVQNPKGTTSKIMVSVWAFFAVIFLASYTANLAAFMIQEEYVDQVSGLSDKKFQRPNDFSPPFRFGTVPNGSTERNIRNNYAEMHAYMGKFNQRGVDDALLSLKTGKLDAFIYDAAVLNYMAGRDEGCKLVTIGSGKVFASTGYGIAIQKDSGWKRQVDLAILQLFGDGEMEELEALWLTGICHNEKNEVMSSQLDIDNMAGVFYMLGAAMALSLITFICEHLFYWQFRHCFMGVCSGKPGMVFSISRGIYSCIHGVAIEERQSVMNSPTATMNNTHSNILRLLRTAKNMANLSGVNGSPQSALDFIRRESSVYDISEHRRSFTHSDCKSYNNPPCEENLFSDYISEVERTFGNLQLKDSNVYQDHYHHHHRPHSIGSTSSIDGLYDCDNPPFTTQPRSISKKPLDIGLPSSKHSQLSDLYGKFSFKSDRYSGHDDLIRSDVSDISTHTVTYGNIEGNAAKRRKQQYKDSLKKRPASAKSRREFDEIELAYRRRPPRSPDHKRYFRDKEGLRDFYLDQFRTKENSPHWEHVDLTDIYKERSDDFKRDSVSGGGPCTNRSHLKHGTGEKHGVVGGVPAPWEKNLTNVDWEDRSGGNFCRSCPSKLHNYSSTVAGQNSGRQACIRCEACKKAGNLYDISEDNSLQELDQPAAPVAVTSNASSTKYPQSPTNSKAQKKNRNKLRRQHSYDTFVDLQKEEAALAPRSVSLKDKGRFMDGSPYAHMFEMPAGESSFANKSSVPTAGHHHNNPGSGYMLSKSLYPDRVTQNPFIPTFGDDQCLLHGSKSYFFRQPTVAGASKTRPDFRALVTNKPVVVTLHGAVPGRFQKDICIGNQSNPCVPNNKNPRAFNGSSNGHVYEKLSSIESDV
Chain of P-glycoprotein (P-gp) (P08183 whole entry): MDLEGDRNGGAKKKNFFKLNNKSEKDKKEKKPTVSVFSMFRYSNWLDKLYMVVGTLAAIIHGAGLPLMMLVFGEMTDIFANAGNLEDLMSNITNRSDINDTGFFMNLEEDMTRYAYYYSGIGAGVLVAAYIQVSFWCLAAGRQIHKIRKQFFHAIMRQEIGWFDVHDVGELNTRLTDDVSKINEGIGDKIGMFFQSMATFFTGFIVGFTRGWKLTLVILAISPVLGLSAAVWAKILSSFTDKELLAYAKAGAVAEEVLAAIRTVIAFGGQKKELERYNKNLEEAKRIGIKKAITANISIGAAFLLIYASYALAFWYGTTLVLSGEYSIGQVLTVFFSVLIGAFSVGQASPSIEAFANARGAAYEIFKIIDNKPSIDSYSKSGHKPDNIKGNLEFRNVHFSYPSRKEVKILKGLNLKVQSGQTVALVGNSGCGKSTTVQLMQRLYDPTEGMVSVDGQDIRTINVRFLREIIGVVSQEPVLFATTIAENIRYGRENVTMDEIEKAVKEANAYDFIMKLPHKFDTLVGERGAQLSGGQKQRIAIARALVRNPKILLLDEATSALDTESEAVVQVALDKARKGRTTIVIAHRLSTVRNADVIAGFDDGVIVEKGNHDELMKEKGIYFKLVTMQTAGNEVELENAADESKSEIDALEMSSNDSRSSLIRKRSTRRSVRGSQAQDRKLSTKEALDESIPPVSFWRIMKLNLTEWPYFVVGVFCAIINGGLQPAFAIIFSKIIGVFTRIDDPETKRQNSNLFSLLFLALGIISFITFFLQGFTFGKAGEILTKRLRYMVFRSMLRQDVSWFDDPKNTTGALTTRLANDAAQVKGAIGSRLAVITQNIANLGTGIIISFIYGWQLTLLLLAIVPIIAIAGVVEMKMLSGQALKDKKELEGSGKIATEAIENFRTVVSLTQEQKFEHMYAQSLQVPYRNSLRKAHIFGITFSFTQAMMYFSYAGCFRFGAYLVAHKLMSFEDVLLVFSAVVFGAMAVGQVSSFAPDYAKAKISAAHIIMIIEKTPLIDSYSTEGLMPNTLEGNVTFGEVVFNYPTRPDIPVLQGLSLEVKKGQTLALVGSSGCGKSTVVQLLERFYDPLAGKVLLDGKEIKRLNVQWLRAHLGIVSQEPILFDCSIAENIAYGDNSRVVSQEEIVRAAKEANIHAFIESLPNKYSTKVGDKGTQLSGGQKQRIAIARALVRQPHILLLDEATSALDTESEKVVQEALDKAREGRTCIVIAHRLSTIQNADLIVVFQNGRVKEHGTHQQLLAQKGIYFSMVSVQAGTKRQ

Turning to “9-fluoro-7-((R)-1-hydroxy-2-((3aS,5S,6aR)-3a-hydroxy-5-phenoxyhexahydrocyclopenta[c]pyrrol-2(1H)-yl)ethyl)-1,5-dihydrobenzo[e][1,4]oxazepin-2(3H)-one [Example 32A]”, the pIC50 at NR2B was 6.02. The “MDCK-MDR1 ER” value at P-glycoprotein (P-gp) (efflux ratio, 10 μM, 120 min) is recorded as 0.83.

As for `O=C1Cc2cc([C@@H](O)CN3C[C@H]4C[C@H](Oc5ccccc5)C[C@@]4(O)C3)ccc2N1` (single isomer, unassigned) [Example 2A], the pIC50 at NR2B was 7.00. Further, at P-glycoprotein (P-gp), the efflux ratio at 120 min, 10 μM amounted to 3.3.

For `O=C1CCc2cc([C@@H](O)CN3C[C@H]4C[C@H](Oc5ccccc5F)C[C@@]4(O)C3)cc(F)c2N1` (single isomer, unassigned) [Example 6A], the pIC50 at NR2B was 6.28. The efflux ratio at 120 min, 10 μM at P-glycoprotein (P-gp) is 1.01.

Consider `O=C1CCc2cc([C@H](O)CN3C[C@@H]4C[C@@H](Oc5ccccc5F)C[C@]4(O)C3)cc(F)c2N1` (single isomer, unassigned) [Example 6D], for which, at NR2B, the pIC50 was 8.62. The efflux ratio at 120 min, 10 μM on P-glycoprotein (P-gp) stood at 1.29.

On to `O=C1CCCc2cc([C@@H](O)CN3C[C@H]4C[C@H](Oc5ccccc5)C[C@@]4(O)C3)ccc2N1` (single isomer, unassigned) [Example 7A], for which the pIC50 at NR2B was 7.85. On P-glycoprotein (P-gp), the efflux ratio at 120 min, 10 μM came to 2.73.

Take `O=c1ccc2cc([C@H](O)CN3C[C@H]4C[C@H](Oc5ccccc5)C[C@@]4(O)C3)ccc2[nH]1` (single isomer, unassigned) [Example 8B]: on NR2B, the pIC50 was 9.24. For the same compound, the efflux ratio at 120 min, 10 μM at P-glycoprotein (P-gp) was determined as 3.46.

`O=C1CCc2c(ccc([C@@H](O)CN3C[C@H]4C[C@H](Oc5ccccc5)C[C@@]4(O)C3)c2F)N1` (single isomer, unassigned) [Example 9A]: on NR2B, the pIC50 was 8.57. The efflux ratio at 120 min, 10 μM at P-glycoprotein (P-gp) was 1.06.

As to `O=C1CCc2c(ccc([C@H](O)CN3C[C@H]4C[C@H](Oc5ccccc5)C[C@@]4(O)C3)c2F)N1` (single isomer, unassigned) [Example 9B], the pIC50 at NR2B was 8.39. Moreover, the efflux ratio at 120 min, 10 μM on P-glycoprotein (P-gp) was found to be 1.4.

With `O=C1CCc2cc([C@H](O)CN3C[C@H]4C[C@H](Oc5ccccc5)C[C@@]4(O)C3)c(F)cc2N1` (single isomer, unassigned) [Example 10B], at NR2B, the pIC50 was 9.25. In addition, the efflux ratio at 120 min, 10 μM at P-glycoprotein (P-gp) was found to be 2.49.

With `CC1(C)Cc2cc([C@@H](O)CN3C[C@H]4C[C@H](Oc5ccccc5)C[C@@]4(O)C3)ccc2NC1=O` (single isomer, unassigned) [Example 11A], the pIC50 on NR2B is 8.72. Besides, the efflux ratio at 120 min, 10 μM at P-glycoprotein (P-gp) is 1.74.

On to `O=C1Nc2ccc([C@@H](O)CN3C[C@H]4C[C@H](Oc5ccccc5F)C[C@@]4(O)C3)cc2CCO1` (single isomer, unassigned) [Example 12A], for which the pIC50 at NR2B was 9.52. In addition, the efflux ratio at 120 min, 10 μM at P-glycoprotein (P-gp) came out at 2.81.

For `O=C1COc2cc([C@@H](O)CN3C[C@H]4C[C@H](Oc5ccccc5)C[C@@]4(O)C3)cc(F)c2N1` (single isomer, unassigned) [Example 13A], at NR2B, the pIC50 is 7.07. Moreover, the efflux ratio at 120 min, 10 μM at P-glycoprotein (P-gp) was 1.22.

With `O=C1COc2cc([C@H](O)CN3C[C@H]4C[C@H](Oc5ccccc5)C[C@@]4(O)C3)cc(F)c2N1` (single isomer, unassigned) [Example 13B], on NR2B, the pIC50 was 7.24. For the same compound, on P-glycoprotein (P-gp), the efflux ratio at 120 min, 10 μM came out at 1.11.

As to `O=C1Nc2ccc([C@@H](O)CN3C[C@H]4C[C@H](Oc5ccccc5)C[C@@]4(O)C3)cc2CS1` (single isomer, unassigned) [Example 14A], at NR2B, the pIC50 was 10.96. The efflux ratio at 120 min, 10 μM on P-glycoprotein (P-gp) stood at 1.51.

On to `O=C1Nc2ccc([C@@H](O)CN3C[C@H]4C[C@H](Oc5ccccc5F)C[C@@]4(O)C3)cc2CS1` (single isomer, unassigned) [Example 15A], for which the pIC50 on NR2B is 11.82. In addition, the efflux ratio at 120 min, 10 μM at P-glycoprotein (P-gp) stood at 1.6.

Take `O=C1Nc2ccc([C@H](O)CN3C[C@H]4C[C@H](Oc5ccccc5F)C[C@@]4(O)C3)cc2CS1` (single isomer, unassigned) [Example 15B]: the pIC50 at NR2B is 11.72. In addition, at P-glycoprotein (P-gp), the efflux ratio at 120 min, 10 μM is 1.92.

As to `O=c1[nH]c2ccc([C@H](O)CN3C[C@H]4C[C@H](Oc5ccccc5)C[C@@]4(O)C3)cc2s1` (single isomer, unassigned) [Example 17B], the pIC50 at NR2B is 10.31. Besides, the efflux ratio at 120 min, 10 μM at P-glycoprotein (P-gp) is 2.06.

For `O=c1[nH]c2ccc([C@@H](O)CN3C[C@H]4C[C@H](Oc5ccccc5F)C[C@@]4(O)C3)cc2s1` (single isomer, unassigned) [Example 18A], the pIC50 at NR2B is > 11.68. Moreover, the efflux ratio at 120 min, 10 μM on P-glycoprotein (P-gp) is 1.61.

Turning to `O=c1[nH]c2c(F)cc([C@H](O)CN3C[C@H]4C[C@H](Oc5ccccc5)C[C@@]4(O)C3)cc2cc1F` (single isomer, unassigned) [Example 20B], the pIC50 on NR2B is 9.48. The efflux ratio at 120 min, 10 μM at P-glycoprotein (P-gp) was found to be 3.32.

As for `O=C1CCc2cc([C@@H](O)CN3C[C@@H]4C[C@@H](Oc5ccc(F)cc5)C[C@]4(O)C3)ccc2N1` (single isomer, unassigned) [Example 22C], at NR2B, the negative-log IC50 (pIC50) was 8.85. Further, at P-glycoprotein (P-gp), the efflux ratio at 120 min, 10 μM was found to be 1.43.

`O=C1CCc2cc([C@@H](O)CN3C[C@@H]4C[C@@H](Oc5cccc(F)c5)C[C@]4(O)C3)ccc2N1` (single isomer, unassigned) [Example 23C]: the pIC50 at NR2B was 8.85. Also, the efflux ratio at 120 min, 10 μM on P-glycoprotein (P-gp) amounted to 3.75.

Take `O=C1CCc2cc([C@H](O)CN3C[C@@H]4C[C@@H](Oc5cccc(F)c5)C[C@]4(O)C3)ccc2N1` (single isomer, unassigned) [Example 23D]: at NR2B, the pIC50 is 8.89. Also, the efflux ratio at 120 min, 10 μM at P-glycoprotein (P-gp) came out at 3.28.

On to `O=C1CCc2cc([C@H](O)CN3C[C@@H]4C[C@@H](Oc5cccc(F)c5F)C[C@]4(O)C3)ccc2N1` (single isomer, unassigned) [Example 24D], for which the pIC50 on NR2B is 10.25. Further, the efflux ratio at 120 min, 10 μM at P-glycoprotein (P-gp) was determined as 2.64.

On to `O=C1CCc2cc([C@@H](O)CN3C[C@@H]4C[C@@H](Oc5ccc(F)cc5F)C[C@]4(O)C3)ccc2N1` (single isomer, unassigned) [Example 25C], for which the pIC50 at NR2B was 9.62. The efflux ratio at 120 min, 10 μM on P-glycoprotein (P-gp) worked out at 2.74.

As for `O=C1CCc2cc([C@@H](O)CN3C[C@@H]4C[C@@H](Oc5cc(F)ccc5F)C[C@]4(O)C3)ccc2N1` (single isomer, unassigned) [Example 26C], the negative logarithm of the IC50 (pIC50) on NR2B was 8.89. Besides, the efflux ratio at 120 min, 10 μM at P-glycoprotein (P-gp) was determined as 3.27.

As to `O=C1CCc2cc([C@H](O)CN3C[C@@H]4C[C@@H](Oc5cc(F)ccc5F)C[C@]4(O)C3)ccc2N1` (single isomer, unassigned) [Example 26D], at NR2B, the pIC50 was 8.72. For the same compound, at P-glycoprotein (P-gp), the efflux ratio at 120 min, 10 μM turned out to be 2.52.

These data come from US20240208953A1, “"Cyclopenta[c]pyrrol Negative Allosteric Modulators of NR2B"” (Novartis AG, priority 2021, published 2024).
